In the assay the target is human CD73 enzyme (Homo sapiens (Human), UniProt P21589). Briefly: Biochemical CD73 Assay. The conditions noted are these: recombinant human CD73 2 nM, AMP 40 μM, Malachite Green free phosphate detection. As for the experimental part: Activity of recombinant CD73 was measured by quantification of free phosphate using the Malachite Green detection system (R&D Systems #DY996). Test compounds were solubilized in DMSO and dispensed into 384-well polystyrene plates in a 8-point 3× titration in duplicates. Then, 10 μL of 4 nM human CD73 enzyme (Novoprotein #C446) in phosphate- free assay buffer (10 mM HEPES, pH 7.4, 125 mM NaCl, 1 mM KCl, 10 mM glucose, 2 mM MgCl2) was added to the plates. The compound and enzyme were incubated for 15 min at RT. Then, 10 μL of 80 μM AMP (Sigma Aldrich #A1752) in the assay buffer was added and the reaction mixture was incubated for […] at 37° C. The final concentrations of CD73 and AMP in the reaction were 2 nM and 40 μM, respectively. The reaction was stopped by adding 5 μL of Malachite Green reagent A and incubating for 10 mM at RT, followed by addition of 5 μL of Malachite Green reagent B and incubation for 20 mM at RT. Absorbance was then read at 620 nm with the Flexstation spectrophotometer (Molecular Devices). The IC50 values were determined using a four-parameter nonlinear regression curve fit.
Chain of human CD73 enzyme (P21589 27-574): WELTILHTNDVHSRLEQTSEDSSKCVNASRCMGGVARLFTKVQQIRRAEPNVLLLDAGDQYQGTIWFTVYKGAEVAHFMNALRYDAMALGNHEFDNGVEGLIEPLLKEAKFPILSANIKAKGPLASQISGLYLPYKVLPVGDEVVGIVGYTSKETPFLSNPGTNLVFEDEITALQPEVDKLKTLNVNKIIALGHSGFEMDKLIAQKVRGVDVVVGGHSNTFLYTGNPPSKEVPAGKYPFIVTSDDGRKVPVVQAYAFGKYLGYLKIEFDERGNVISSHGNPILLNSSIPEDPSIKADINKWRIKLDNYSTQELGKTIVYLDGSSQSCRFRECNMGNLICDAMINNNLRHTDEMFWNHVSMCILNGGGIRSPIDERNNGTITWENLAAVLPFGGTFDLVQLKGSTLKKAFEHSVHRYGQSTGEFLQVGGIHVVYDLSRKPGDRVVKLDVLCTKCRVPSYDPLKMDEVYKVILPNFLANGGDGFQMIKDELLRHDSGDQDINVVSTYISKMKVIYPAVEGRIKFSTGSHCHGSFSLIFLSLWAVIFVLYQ
As for `COC[C@@](OC[C@H]1O[C@@H](n2ncc3c(NC4CCCC4)nc(Cl)nc32)[C@H](O)[C@@H]1O)(C(=O)NS(=O)(=O)N1CC[C@H](O)C1)P(=O)(O)O` [Example 9, ((S)-2-(((2R,3S,4R,5R)-5-(6-Chloro-4-(cyclopentylamino)-1H-pyrazolo[3,4-d]pyrimidin-1-yl)-3,4-dihydroxytetrahydrofuran-2-yl)methoxy)-1-(((S)-3-hydroxypyrrolidine)-1-sulfonamido)-3-methoxy-1-oxopropan-2-yl)phosphonic Acid], the IC50 (usually the concentration at which inhibition is half-maximal) was 3 nM.

`COC[C@@](OC[C@H]1O[C@@H](n2ncc3c(NC4CCCC4)nc(Cl)nc32)[C@H](O)[C@@H]1O)(C(=O)NS(=O)(=O)N1CCCC1)P(=O)(O)O` [Example 4]: the IC50 worked out at 6 nM.

With `COC[C@@](OC[C@H]1O[C@@H](n2ncc3c(NC4CCCC4)nc(Cl)nc32)[C@H](O)[C@@H]1O)(C(=O)NS(=O)(=O)N1CCC1)P(=O)(O)O` [Example 5, ((S)-1-(Azetidine-1-sulfonamido)-2-(((2R,3S,4R,5R)-5-(6-chloro-4-(cyclopentylamino)-1H-pyrazolo[3,4-d]pyrimidin-1-yl)-3,4-dihydroxytetrahydrofuran-2-yl)methoxy)-3-methoxy-1-oxopropan-2-yl)phosphonic Acid], the IC50 was 2.3 nM.

In the case of `COC[C@](OC[C@H]1O[C@@H](n2ncc3c(NC4CCCC4)nc(Cl)nc32)[C@H](O)[C@@H]1O)(C(=O)NS(=O)(=O)N1CCC1)P(=O)(O)O` [Example 6, ((R)-1-(Azetidine-1-sulfonamido)-2-(((2R,3S,4R,5R)-5-(6-chloro-4-(cyclopentylamino)-1H-pyrazolo[3,4-d]pyrimidin-1-yl)-3,4-dihydroxytetrahydrofuran-2-yl)methoxy)-3-methoxy-1-oxopropan-2-yl)phosphonic Acid], the IC50 amounted to 805 nM.

Take `COC[C@](OC[C@H]1O[C@@H](n2ncc3c(NC4CCCC4)nc(Cl)nc32)[C@H](O)[C@@H]1O)(C(=O)NS(=O)(=O)N(C)C)P(=O)(O)O` [Example 2, ((R)-2-(((2R,3S,4R,5R)-5-(6-chloro-4-(cyclopentylamino)-1H-pyrazolo[3,4-d]pyrimidin-1-yl)-3,4-dihydroxytetrahydrofuran-2-yl)methoxy)-1-((N,N-dimethylsulfamoyl)amino)-3-methoxy-1-oxourouan-2-yl)phosphonic Acid]: the IC50 was 114 nM.

For the compound `COC[C@@](OC[C@H]1O[C@@H](n2ncc3c(NC4CCCC4)nc(Cl)nc32)[C@H](O)[C@@H]1O)(C(=O)NS(=O)(=O)N(C)C)P(=O)(O)O` [Example 1, ((S)-2-(((2R,3S,4R,5R)-5-(6-Chloro-4-(cyclopentylamino)-1H-pyrazolo[3,4-d]pyrimidin-1-yl)-3,4-dihydroxytetrahydrofuran-2-yl)methoxy)-1-((N,N-dimethylsulfamoyl)amino)-3-methoxy-1-oxopropan-2-yl)phosphonic Acid], the IC50 worked out at 6.4 nM.

On to `COC[C@@](OC[C@H]1O[C@@H](n2ncc3c(NC4CCCC4)nc(Cl)nc32)[C@H](O)[C@@H]1O)(C(=O)NS(=O)(=O)N1CC[C@@H](O)C1)P(=O)(O)O` [Example 7], for which the IC50 is 6.2 nM.

For `COC[C@@](OC[C@H]1O[C@@H](n2ncc3c(NC4CCCC4)nc(Cl)nc32)[C@H](O)[C@@H]1O)(C(=O)NS(=O)(=O)N1CCCC1=O)P(=O)(O)O` [Example 3], the IC50 came to 0.48 nM.

These data come from patent publication US20240140979A1, “HETEROCYCLIC INHIBITORS OF CD73 FOR TREATMENT OF DISEASE” (Teon Therapeutics, Inc., priority 2022, published 2024).
